Measured values from US5041567A, “Antibacterial monic acid derivatives” (Beecham Group plc, priority 1982, dated 1991).
Values after ≈ are worked out from the molar mass of the structure shown. Like-named read-outs stand apart in the source and are kept apart here.

Key:
[1] = system: M. suipneumoniae NB12; assay: MIC against mycoplasma in vitro; type: cell-based
[2] = system: M. suipneumoniae HK(2); assay: MIC against mycoplasma in vitro; type: cell-based
[3] = system: M. suipneumoniae Str. 11; assay: MIC against mycoplasma in vitro; type: cell-based
[4] = system: M. suipneumoniae MS 16; assay: MIC against mycoplasma in vitro; type: cell-based
[5] = system: M. suipneumoniae LABER; assay: MIC against mycoplasma in vitro; type: cell-based
[6] = system: M. suipneumoniae TAM 6N; assay: MIC against mycoplasma in vitro; type: cell-based
[7] = system: M. suipneumoniae ATCC 25095; assay: MIC against mycoplasma in vitro; type: cell-based
[8] = system: M. hyorhinis ATCC 23234; assay: MIC against mycoplasma in vitro; type: cell-based
[9] = system: M. hyorhinis ATCC 25021; assay: MIC against mycoplasma in vitro; type: cell-based
[10] = system: M. bovigenitalium ATCC 14173; assay: MIC against mycoplasma in vitro; type: cell-based; conditions: M. bovigenitalium ATCC 14173, 6 days, 37° C.
[11] = system: E. coli NCTC 10418; assay: MIC against human bacteria in vitro; type: cell-based; conditions: E. coli NCTC 10418, agar with 5% chocolated horse blood, 18 hours, 37° C.
[12] = system: E. coli ESS; assay: MIC against human bacteria in vitro; type: cell-based; conditions: E. coli ESS, 5% chocolated horse blood agar, 18 hours
[13] = system: K. aerogenes A; assay: MIC against human bacteria in vitro; type: cell-based; conditions: K. aerogenes A, 5% chocolated horse blood agar, 18 hours
[14] = system: Ps. aeruginosa NCTC 10662; assay: MIC against human bacteria in vitro; type: cell-based; conditions: Ps. aeruginosa NCTC 10662, 5% chocolated horse blood agar, 18 hours
[15] = system: Haemophilus influenzae Wy21; assay: MIC against human bacteria in vitro; type: cell-based
[16] = system: Neisseria catarrhalis 1502; assay: MIC against human bacteria in vitro; type: cell-based; conditions: Neisseria catarrhalis 1502, 5% chocolated horse blood agar, 18 hours
[17] = system: Bacillus subtilis 6633; assay: MIC against human bacteria in vitro; type: cell-based; conditions: Bacillus subtilis 6633, 5% chocolated horse blood agar, 18 hours
[18] = system: Corynebacterium xerosis 9755; assay: MIC against human bacteria in vitro; type: cell-based; conditions: Corynebacterium xerosis 9755, 5% chocolated horse blood agar, 18 hours
[19] = system: Staph. aureus Russell; assay: MIC against human bacteria in vitro; type: cell-based; conditions: Staph. aureus Russell, 5% chocolated horse blood agar, 18 hours
[20] = system: Staph. aureus W2827; assay: MIC against human bacteria in vitro; type: cell-based; conditions: Staph. aureus W2827, 5% chocolated horse blood agar, 18 hours
[21] = system: Strep. faecalis I; assay: MIC against human bacteria in vitro; type: cell-based; conditions: Strep. faecalis I, 5% chocolated horse blood agar, 18 hours
[22] = system: Strep. pyogenes R80/421-A; assay: MIC against human bacteria in vitro; type: cell-based; conditions: Strep. pyogenes R80/421-A, 5% chocolated horse blood agar, 18 hours
[23] = system: Strep. agalactiae 2788-B; assay: MIC against human bacteria in vitro; type: cell-based; conditions: Strep. agalactiae 2788-B, 5% chocolated horse blood agar, 18 hours
[24] = system: Strep. spp. 64/848-C; assay: MIC against human bacteria in vitro; type: cell-based; conditions: Strep. spp. 64/848-C, 5% chocolated horse blood agar, 18 hours
[25] = system: Strep. pneumoniae CN33; assay: MIC against human bacteria in vitro; type: cell-based; conditions: Strep. pneumoniae CN33, 5% chocolated horse blood agar, 18 hours
[26] = system: S. dublin S7; assay: MIC against veterinary bacteria in vitro
Method: (§1) The activity of the compounds of the Examples against various veterinarily important bacteria, was assayed in vitro using two-fold serial dilutions in Diagnostic Sensitivity Test Agar inoculated with 10^4 organisms.

[27] = system: S. typhimurium S18; assay: MIC against veterinary bacteria in vitro
Method: as §1

[28] = system: Past. multocida PA2; assay: MIC against veterinary bacteria in vitro
Method: as §1

[29] = system: Erysipelothrix rhusiopathiae NCTC 8163; assay: MIC against veterinary bacteria in vitro
Method: as §1

[30] = system: Corynebacterium pyogenes CY1; assay: MIC against veterinary bacteria in vitro
Method: as §1

[31] = system: Staph. aureus 152 (pen. sens); assay: MIC against veterinary bacteria in vitro
Method: as §1

[32] = system: Staph. aureus Oxford; assay: MIC against veterinary bacteria in vitro
Method: as §1

[33] = system: Strep. uberis SPU1; assay: MIC against veterinary bacteria in vitro
Method: as §1

[34] = system: Strep. dysgalactiae SPD1; assay: MIC against veterinary bacteria in vitro
Method: as §1

[35] = Mesomycoplasma hyopneumoniae, 144 h
[36] = Staphylococcus aureus, read-out: MIC

`CC(=Cc1cc(C)no1)CC1OCC(CC2OC2C(C)C(C)O)C(O)C1O` (centres unmarked) [Example 30, 3-Methyl-5-(1-normon-2-yl) isoxazole A] gave an MIC ([1]; M. suipneumoniae NB12, Friis broth, 0.9% agarose, 6 days, 37° C.) of 5.0 µg/mL (≈ 13.1 µM), an MIC ([2]; M. suipneumoniae HK(2), 6 days, 37° C.) of 2.5 µg/mL (≈ 6.55 µM) and an MIC ([3]; M. suipneumoniae Str. 11, 6 days, 37° C.) of 2.5 µg/mL (≈ 6.55 µM). For the same compound, the MIC ([4]; M. suipneumoniae MS 16, 6 days, 37° C.) was 2.5 µg/mL (≈ 6.55 µM), the MIC ([5]; M. suipneumoniae LABER, 6 days, 37° C.) was 2.5 µg/mL (≈ 6.55 µM) and the MIC ([6]; M. suipneumoniae TAM 6N, 6 days, 37° C.) was 5.0 µg/mL (≈ 13.1 µM). The MIC ([7]; M. suipneumoniae ATCC 25095, 6 days, 37° C.) was 2.5 µg/mL (≈ 6.55 µM), the MIC ([8]; M. hyorhinis ATCC 23234, 6 days, 37° C.) was 0.5 µg/mL (≈ 1.31 µM) and the MIC ([9]; M. hyorhinis ATCC 25021, 6 days, 37° C.) was 0.5 µg/mL (≈ 1.31 µM). The MIC [10] was 0.25 µg/mL (≈ 0.655 µM), the MIC [11] was over 128 µg/mL and the MIC [12] was 8.0 µg/mL (≈ 21 µM). It also gave an MIC [13] of over 128 µg/mL, an MIC [14] of over 128 µg/mL and an MIC ([15]; Haemophilus influenzae Wy21, 5% chocolated horse blood agar, 18 hours) of under 0.06 µg/mL. It also gave an MIC [16] of 8.0 µg/mL (≈ 21 µM), an MIC [17] of 8.0 µg/mL (≈ 21 µM) and an MIC [18] of over 128 µg/mL. It also gave an MIC [19] of 16 µg/mL (≈ 41.9 µM), an MIC [20] of 16 µg/mL (≈ 41.9 µM) and an MIC [21] of over 128 µg/mL. It also gave an MIC [22] of 32 µg/mL (≈ 83.9 µM), an MIC [23] of 128 µg/mL (≈ 336 µM) and an MIC [24] of over 128 µg/mL. The MIC [25] was 128 µg/mL (≈ 336 µM), the MIC ([26]; S. dublin S7, Diagnostic Sensitivity Test Agar, 18 hours) was over 80 µg/mL and the MIC ([27]; S. typhimurium S18, Diagnostic Sensitivity Test Agar, 18 hours) was over 80 µg/mL. It also gave an MIC ([28]; Past. multocida PA2, Diagnostic Sensitivity Test Agar, 18 hours) of 0.312 µg/mL (≈ 0.818 µM), an MIC ([29]; Erysipelothrix rhusiopathiae NCTC 8163, Diagnostic Sensitivity Test Agar, 18 hours) of over 80 µg/mL and an MIC ([30]; Corynebacterium pyogenes CY1, Diagnostic Sensitivity Test Agar, 18 hours) of over 80 µg/mL. It also gave an MIC ([31]; Staph. aureus 152 (pen. sens), Diagnostic Sensitivity Test Agar, 18 hours) of 2.5 µg/mL (≈ 6.55 µM), an MIC ([32]; Staph. aureus Oxford, Diagnostic Sensitivity Test Agar, 18 hours) of 2.5 µg/mL (≈ 6.55 µM) and an MIC ([33]; Strep. uberis SPU1, Diagnostic Sensitivity Test Agar, 18 hours) of 10 µg/mL (≈ 26.2 µM). The MIC ([34]; Strep. dysgalactiae SPD1, Diagnostic Sensitivity Test Agar, 18 hours) was 40 µg/mL (≈ 105 µM).
`C/C(=C\c1cc(C)on1)C[C@@H]1OC[C@H](C[C@@H]2O[C@H]2[C@@H](C)[C@H](C)O)[C@@H](O)[C@H]1O` [Example 33, 5-Methyl-3-(1-normon-2-yl) isoxazole A] was tested, and the MIC ([1]; Mesomycoplasma hyopneumoniae, NB12, 144 h) was 2.5 µg/mL (≈ 6.55 µM), the MIC [2, 35] was 2.5 µg/mL (≈ 6.55 µM) and the MIC ([3]; Mesomycoplasma hyopneumoniae, STR.11, 144 h) was 1 µg/mL (≈ 2.62 µM). For the same compound, the MIC ([4]; Mesomycoplasma hyopneumoniae, MS16, 144 h) was 1 µg/mL (≈ 2.62 µM), the MIC [5, 35] was 2.5 µg/mL (≈ 6.55 µM) and the MIC ([6]; Mesomycoplasma hyopneumoniae, TAM6N, 144 h) was 2.5 µg/mL (≈ 6.55 µM). For the same compound, the MIC ([7]; Mesomycoplasma hyopneumoniae, ATCC25095, 144 h) was 1 µg/mL (≈ 2.62 µM), the MIC ([8]; Mesomycoplasma hyorhinis, ATCC23234, 144 h) was 1 µg/mL (≈ 2.62 µM) and the MIC ([9]; Mesomycoplasma hyorhinis, ATCC25021, 144 h) was 1 µg/mL (≈ 2.62 µM). It also gave an MIC ([10]; 144 h, read-out: MIC) of 0.5 µg/mL (≈ 1.31 µM), an MIC ([11]; Escherichia coli, NCTC10418, read-out: MIC) of over 128 µg/mL and an MIC ([12]; Escherichia coli, read-out: MIC) of 8 µg/mL (≈ 21 µM). It also gave an MIC ([13]; Klebsiella aerogenes, read-out: MIC) of over 128 µg/mL, an MIC ([14]; Pseudomonas aeruginosa, NCTC10662, read-out: MIC) of over 128 µg/mL and an MIC ([15]; Haemophilus influenzae, WY21, 18 h) of 0.25 µg/mL (≈ 0.655 µM). For the same compound, the MIC ([16]; read-out: MIC) was 4 µg/mL (≈ 10.5 µM), the MIC ([17]; read-out: MIC) was 1 µg/mL (≈ 2.62 µM) and the MIC ([18]; read-out: MIC) was over 128 µg/mL. It also gave an MIC [19, 36] of 8 µg/mL (≈ 21 µM), an MIC [20, 36] of 8 µg/mL (≈ 21 µM) and an MIC ([21]; Enterococcus faecalis, read-out: MIC) of over 128 µg/mL. The MIC ([22]; Streptococcus pyogenes, read-out: MIC) was 8 µg/mL (≈ 21 µM), the MIC ([23]; Streptococcus agalactiae, read-out: MIC) was 64 µg/mL (≈ 168 µM) and the MIC ([24]; read-out: MIC) was 32 µg/mL (≈ 83.9 µM). The MIC ([25]; Streptococcus pneumoniae, read-out: MIC) was 32 µg/mL (≈ 83.9 µM), the MIC ([26]; Salmonella enterica, S7, 18 h) was over 80 µg/mL and the MIC ([27]; Salmonella enterica, TYPHIMURIUM, 18 h) was over 80 µg/mL. For the same compound, the MIC ([28]; Pasteurella multocida, PA2, 18 h) was 0.625 µg/mL (≈ 1.64 µM), the MIC ([29]; Erysipelothrix rhusiopathiae, NCTC8163, 18 h) was over 80 µg/mL and the MIC ([30]; CY1, 18 h) was over 80 µg/mL. It also gave an MIC ([31]; Staphylococcus aureus, 18 h) of 2.5 µg/mL (≈ 6.55 µM), an MIC ([32]; Staphylococcus aureus, 18 h) of 2.5 µg/mL (≈ 6.55 µM) and an MIC ([33]; Streptococcus uberis, SPU1, 18 h) of 5 µg/mL (≈ 13.1 µM). For the same compound, the MIC ([34]; Streptococcus dysgalactiae, SPD1, 18 h) was 5 µg/mL (≈ 13.1 µM).
